Data reported in PubChem BioAssay AID602308 (Southern Research Specialized Biocontainment Screening …, 2012).
The source made the active and inactive calls. How the calls were made is not given here.

target: Flavivirus NS5 methyltransferase / guanylyltransferase (capping enzyme); assay: NS5 cap-forming enzyme inhibition – biochemical, confirmation (AID 602308); details: Flavivirus NS5 capping enzyme biochemical inhibition assay

Compound	IC50 [µM]
Cc1cc(C)c(S(=O)(=O)Nc2cc(SCC(=O)O)c(O)c3ccccc23)c(C)c1	6.95
Cn1c(=O)c2[nH]c(-c3ccc(Cl)cc3)c(O)c2n(C)c1=O	57.8
O=C(O)CSc1cc(NS(=O)(=O)c2cccc3cccnc23)c2ccccc2c1O	6.62
O=C(O)CSc1cc(NS(=O)(=O)c2ccc(Cl)cc2)c2ccccc2c1O	5.45
COc1ccc(OC)c(S(=O)(=O)Nc2cc(SCC(=O)O)c(O)c3ccccc23)c1	9.09
Cc1ccc(S(=O)(=O)Nc2cc(Sc3nc(C)cc(C)n3)c(O)c3ccccc23)cc1	83.8
O=S(=O)(Nc1cc(Sc2ncn[nH]2)c(O)c2ccccc12)c1ccc(F)cc1	10.2
O=S(=O)(Nc1cc(Cl)c(O)c2ccccc12)c1ccc(F)cc1	17.8
O=C(O)CSc1cc(NS(=O)(=O)c2cccc([N+](=O)[O-])c2)c2ccccc2c1O	3.83
O=[N+]([O-])c1cccc(S(=O)(=O)Nc2cc(Sc3nc4ccccc4s3)c(O)c3ccccc23)c1	34.3
O=S(=O)(Nc1cc(Sc2ccccc2)c(O)c2ccccc12)c1ccc(F)cc1	35.6
Cn1c(=O)c2[nH]c(-c3ccccc3)c(O)c2n(C)c1=O	28.1
Cc1ccc(S(=O)(=O)Nc2cc(SCC(=O)O)c(O)c3ccccc23)cc1	6.24
Cc1cc(F)ccc1S(=O)(=O)Nc1cc(SCC(=O)O)c(O)c2ccccc12	5.66
O=C(O)CSc1cc(NS(=O)(=O)c2ccc(F)cc2)c2ccccc2c1O	7.32
O=[N+]([O-])c1cccc(S(=O)(=O)Nc2cc(SCc3ccccc3)c(O)c3ccccc23)c1	14.8
O=S(=O)(Nc1cc(SCc2ccccc2)c(O)c2ccccc12)c1ccc(Cl)cc1	43.3
O=C(O)CSc1cc(NS(=O)(=O)c2ccc(Br)cc2)c2ccccc2c1O	4.96

same assay, conditions: Flavivirus NS5 capping enzyme biochemical inhibition assay; at 100 µM (top of the series)

Compound	inhibition
Cn1c(=O)c2[nH]c(-c3ccccc3)nc2n(C)c1=O	inactive
Clc1ccc2nc(-c3cccs3)cn2c1	inactive
Cc1ccc2nc(-c3ccccc3)cn2c1	inactive
Cc1ccn2cc(-c3ccccc3)nc2c1	inactive
Cc1nc2nc(-c3ccc(F)cc3)cn2nc1C	inactive
Cn1c(=O)c2cnc(-c3ccccc3)nc2n(C)c1=O	inactive
CN(C)C(=O)c1ccc2nc(-c3ccccc3)cn2c1	inactive
Clc1ccc2nc(-c3ccccc3)cn2c1	inactive
Cc1ccc(-c2cn3nc(C)c(C)nc3n2)cc1	inactive
Cn1c(=O)c2[nH]c(-c3cccc4ccccc34)c(O)c2n(C)c1=O	inactive
Cc1nc2nc(-c3ccccc3)cn2nc1C	inactive
Cc1nc2nc(-c3ccc(Cl)cc3)cn2nc1C	inactive
